In data set [1] the target is T1, 5-HT3 receptors (Rattus norvegicus, UniProt P35563).
T1 construct: from tissue; host or cells: rat cortex and hippocampus
T1 sequence (P35563 24-483): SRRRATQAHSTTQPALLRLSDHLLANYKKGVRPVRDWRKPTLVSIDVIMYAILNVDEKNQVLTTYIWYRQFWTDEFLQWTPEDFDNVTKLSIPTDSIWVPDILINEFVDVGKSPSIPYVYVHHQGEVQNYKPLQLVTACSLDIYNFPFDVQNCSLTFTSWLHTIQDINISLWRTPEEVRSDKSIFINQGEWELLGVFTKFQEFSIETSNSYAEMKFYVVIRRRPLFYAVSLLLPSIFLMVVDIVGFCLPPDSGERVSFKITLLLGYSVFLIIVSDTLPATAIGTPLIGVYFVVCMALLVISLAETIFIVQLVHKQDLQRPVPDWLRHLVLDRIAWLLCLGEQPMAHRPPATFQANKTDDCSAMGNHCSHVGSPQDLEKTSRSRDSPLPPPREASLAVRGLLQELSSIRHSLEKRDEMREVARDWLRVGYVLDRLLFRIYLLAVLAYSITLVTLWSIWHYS
Kind of data set: Affinity for the 5-HT3 receptors, [3H]-BRL43694 (Granisetron) binding. As to the method:
a) Affinity for the 5-HT3 Receptors
The method of Nelson et al. (Biochem. Pharmacol. 1989, 38, 1693-95) was followed with slight modifications. Rat cortex and hippocampus were used to produce a pellet having a final concentration of 20 mg of tissue/sample. Specific activity of the tracer: 81 Ci/mmole; incubation time: 30 min; incubation temperature: 25° C.

The target in data set [2] is T2, serotonin uptake site (Rattus norvegicus, UniProt P31652).
T2 construct: from tissue; host or cells: entire rat brain
T2 sequence (P31652 whole entry): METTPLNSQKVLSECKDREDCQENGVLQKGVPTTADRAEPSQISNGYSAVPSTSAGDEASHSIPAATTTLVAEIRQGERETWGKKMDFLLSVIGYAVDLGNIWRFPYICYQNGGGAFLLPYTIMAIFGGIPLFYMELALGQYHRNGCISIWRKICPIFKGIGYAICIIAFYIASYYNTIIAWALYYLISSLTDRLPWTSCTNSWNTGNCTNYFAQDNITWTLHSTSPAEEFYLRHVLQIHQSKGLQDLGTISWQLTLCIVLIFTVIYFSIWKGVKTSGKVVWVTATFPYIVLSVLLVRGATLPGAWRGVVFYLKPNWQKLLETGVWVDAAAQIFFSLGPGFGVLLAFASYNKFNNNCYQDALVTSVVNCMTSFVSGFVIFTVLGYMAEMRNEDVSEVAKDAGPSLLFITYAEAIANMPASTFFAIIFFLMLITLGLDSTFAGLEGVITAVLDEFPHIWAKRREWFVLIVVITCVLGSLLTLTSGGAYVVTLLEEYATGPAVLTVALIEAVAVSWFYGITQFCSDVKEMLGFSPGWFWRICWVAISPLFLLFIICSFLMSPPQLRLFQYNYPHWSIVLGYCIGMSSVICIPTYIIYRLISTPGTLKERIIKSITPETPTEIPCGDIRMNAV
Kind of data set: Affinity for the serotonin uptake site, [3H]-paroxetine binding. As to the method:
The method of Plenge et al (Eur. J. Pharmacol., 1990, 189, 129-134) was followed with slight modifications. The entire rat brain was used to produce a pellet having a final concentration of 2 mg of tissue/sample. Specific activity of the tracer: 29.7 Ci/mmole; incubation time: 60 min.; incubation temperature: 25° C.

The target of data set [3] is T3, 5-HT2A Subtype (Rattus norvegicus, UniProt P14842).
T3 construct: from tissue; host or cells: rat prefrontal cortex
T3 sequence (P14842 whole entry): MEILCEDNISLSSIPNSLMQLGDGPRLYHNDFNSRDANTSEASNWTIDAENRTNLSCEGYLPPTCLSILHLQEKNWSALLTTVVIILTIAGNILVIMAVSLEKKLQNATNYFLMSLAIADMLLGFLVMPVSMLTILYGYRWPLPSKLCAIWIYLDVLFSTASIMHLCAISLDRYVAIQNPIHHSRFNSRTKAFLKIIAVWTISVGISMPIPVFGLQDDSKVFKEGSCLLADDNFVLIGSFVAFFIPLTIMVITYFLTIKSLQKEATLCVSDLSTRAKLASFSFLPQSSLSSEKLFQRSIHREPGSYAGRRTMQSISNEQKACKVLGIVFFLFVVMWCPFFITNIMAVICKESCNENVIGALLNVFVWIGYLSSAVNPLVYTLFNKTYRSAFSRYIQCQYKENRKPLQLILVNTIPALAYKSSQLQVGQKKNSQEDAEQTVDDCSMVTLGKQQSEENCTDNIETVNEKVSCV
Kind of data set: Affinity for the 5HT2 receptors, [3H]-ketanserine binding. To be noted: for Ki: read-out: Ki ± SE, 5-HT2A Subtype ([3R]-ketanserine). As to the method:
c) Affinity for the 5HT2 Receptors
The method of Leysen et al (Mol. Pharmacol. 1982, 21, 301-314) was followed with slight modifications. Rat prefrontal cortex was used to produce a pellet having a final concentration of 8 mg of tisssue/sample. Specific activity of the tracer: 80.9 Ci/mmole; incubation time: 20 min; incubation temperature: 37° C.

Data set [4] concerns the target T4, 5-HT1A receptors (Rattus norvegicus, UniProt P19327).
T4 construct: from tissue; host or cells: rat hippocampus
T4 sequence (P19327 1-422): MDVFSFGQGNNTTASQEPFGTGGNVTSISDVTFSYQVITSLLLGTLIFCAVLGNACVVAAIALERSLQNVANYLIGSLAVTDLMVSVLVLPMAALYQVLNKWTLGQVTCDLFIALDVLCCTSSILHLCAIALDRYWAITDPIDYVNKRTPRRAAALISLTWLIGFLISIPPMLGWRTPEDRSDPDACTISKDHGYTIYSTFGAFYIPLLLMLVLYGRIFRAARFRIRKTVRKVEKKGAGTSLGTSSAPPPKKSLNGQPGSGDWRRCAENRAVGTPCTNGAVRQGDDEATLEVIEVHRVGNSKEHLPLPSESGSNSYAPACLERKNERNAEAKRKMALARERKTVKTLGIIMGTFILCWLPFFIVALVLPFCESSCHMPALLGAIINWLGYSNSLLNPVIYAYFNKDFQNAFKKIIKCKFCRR
As to the kind of experiment: Affinity for the 5-HT1A receptors, [3H]-8-OH DPAT binding. To be noted: for Ki ± SE, 5-HT1A Subtype ([3H]-8OH-DPAT): rat hippocampus, 10 min, 37° C., IN (10^−6M) where no Ki is given. As to the method: d) Affinity for the 5-HT1A Receptors
The method of Hall et al (J. Neurochem. 1985, 44, 1685-1696) was followed with slight modifications. Rat hippocampus was used to produce a pellet having a final concentration of 4 mg of tissue/sample. Specific activity of the tracer: 137 Ci/mmole; incubation time 10 min; incubation temperature: 37° C.

Setting [5] is: entire rat brain, 60 min, 25° C., read-out: Ki ± SE, 5-HT Uptake ([3H]-paroxetin).
The mark [6] stands for this setting: rat prefrontal cortex, 20 min, 37° C., IN (10^−6M) where no Ki is given.

Where two headings read alike, the source gives them in different places.

13 compounds from patent US6413978B1, “Basic derivatives of benz[e] isoindol-1-ones and pyrrolo[3,4-c] quinolin-1-ones with 5-HT3-antagonistic activity, their preparation and their therapeutic use” (Rotta Research Laboratorium S.p.A., priority 1998, dated 2002) can be followed below.

`O=C1c2c(ccc3ccccc23)CN1C1CN2CCC1CC2` (racemic) [Compound 6, (R,S)-2-[1-azadicyclo[2.2.2]oct-3-yl]-2,3-dihydro-1H-benz[e]isoindol-1-one] registered a melting point of 153 to 154 °C. Also, the Ki in data set [1] is 0.7 ± 0.08 nM. In addition, affinity in data set [2] was put at a Ki of 95.8 ± 9.6 nM. Moreover, the inhibition constant (Ki) in data set [3] came out at 26500 ± 8700 nM. Also, the “Ki ± SE, 5-HT1A Subtype ([3H]-8OH-DPAT)” value in data set [4] was “IN (10^−6M)”.

With `O=C1c2c(cnc3ccccc23)CN1C1CN2CCC1CC2` (racemic) [Compound 9, (R,S)-2-[1-azadicyclo[2.2.2]oct-3-yl]-2,3-dihydro-1H-pyrrolo[3,4-c]quinolin-1-one], the Ki in data set [1] amounted to 1.6 ± 0.6 nM; in data set [2] (setting [5]) it was 124 ± 22 nM. In addition, the “Ki ± SE, 5-HT2A Subtype ([3R]-ketanserine)” value (from here on “Ki ± SE, 5-HT2A Subtype”) in data set [3] (setting [6]) was “IN (10^−6M)”. Further, the “Ki ± SE, 5-HT1A Subtype ([3H]-8OH-DPAT)” value in data set [4] was “IN (10^−6M)”.

`O=[N+]([O-])c1ccc2nc(N3CCNCC3)ccc2c1` [6-NO2-quipazine, reference compound]: the inhibition constant (Ki) in data set [2] (setting [5]) is 0.12 ± 0.01 nM.

Regarding `CN1[C@@H]2CC[C@H]1C[C@@H](N1Cc3ccc4ccccc4c3C1=O)C2` [Compound 1], the Ki in data set [1] is 1 ± 0.2 nM; in data set [2] (setting [5]), 632 ± 51 nM; in data set [3] it was 21100 ± 2300 nM; in data set [4] (read-out: Ki ± SE, 5-HT1A Subtype ([3H]-8OH-DPAT)), 30600 ± 6460 nM.

`CN1[C@@H]2CC[C@H]1C[C@@H](N1Cc3cnc4ccccc4c3C1=O)C2` [Compound 2, endo-2-[8-methyl-8-azadicyclo[3.2.1]oct-3-yl]-2,3-dihydro-1H-pyrrolo[3,4-c]quinolin-1-one] came in with a melting point of 153 to 154 °C. In data set [1], affinity was put at a Ki of 1.3 ± 0.2 nM. The Ki in data set [2] (setting [5]) is 503 ± 86 nM. In data set [3] (setting [6]), the “Ki ± SE, 5-HT2A Subtype” value was “IN (10^−6M)”. Also, the “Ki ± SE, 5-HT1A Subtype ([3H]-8OH-DPAT)” value in data set [4] was “IN (10^−6M)”.

`CN1[C@@H]2CC[C@H]1C[C@@H](N1Cc3c(Cl)nc4ccccc4c3C1=O)C2` [Compound 3, endo-2-[8-methyl-8-azadicyclo[3.2.1]oct-3-yl]-2,3-dihydro-4-chloro-1H-pyrrolo[3,4-c]quinolin-1-one] displayed a melting point of 169 to 171 °C. For the same compound, in data set [1], the affinity corresponds to a Ki of 2.6 ± 0.4 nM. The inhibitory constant (Ki) in data set [2] (setting [5]) is 175 ± 30 nM. For the same compound, in data set [3] (setting [6]), the “Ki ± SE, 5-HT2A Subtype” value is listed as “IN (10^−6M)”. Moreover, the “Ki ± SE, 5-HT1A Subtype ([3H]-8OH-DPAT)” value in data set [4] is recorded as “IN (10^−6M)”.

In the case of `CCCOc1nc2ccccc2c2c1CN(C1CC3CCC(C1)N3C)C2=O` (stereo not drawn) [Compound 4, endo-2-[8-methyl-8-azadicyclo[3.2.1]oct-3-yl]-2,3-dihydro-4-propoxy-1H-pyrrolo[3,4-c]quinolin-1-one], the melting point is 170 to 171 °C. Moreover, the Ki in data set [1] amounted to 0.7 ± 0.2 nM. In data set [2] (setting [5]), the Ki was found to be 108 ± 15 nM. Besides, the “Ki ± SE, 5-HT2A Subtype” value in data set [3] (setting [6]) is reported as “IN (10^−6M)”. Further, the “Ki ± SE, 5-HT1A Subtype ([3H]-8OH-DPAT)” value in data set [4] is “IN (10^−6M)”.

`CN1[C@@H]2CC[C@H]1C[C@@H](N1Cc3c(O)nc4ccccc4c3C1=O)C2` [Compound 5, endo-2-[8-methyl-8-azadicyclo[3.2.1]oct-3-yl]-2,3-dihydro-4-hydroxy-1H-pyrrolo[3,4-c]quinolin-1-one] displayed a melting point of 245 to 246 °C. This compound also displayed a Ki in data set [1] of 0.9 ± 0.06 nM. The Ki in data set [2] (setting [5]) is 485 ± 37 nM. Also, the “Ki ± SE, 5-HT2A Subtype” value in data set [3] (setting [6]) is reported as “IN (10^−6M)”. Moreover, the “Ki ± SE, 5-HT1A Subtype ([3H]-8OH-DPAT)” value in data set [4] is “IN (10^−6M)”.

As to `O=C1c2c(ccc3ccccc23)CN1[C@@H]1CN2CCC1CC2` [Compound 7, (S)-2-[1-azadicyclo[2.2.2]oct-3-yl]-2,3-dihydro-1H-benz[e]isoindol-1-one], the melting point lay in the range of 152 to 154 °C. In data set [1], the Ki worked out at 0.3 ± 0.09 nM and the “affinity for the 5-HT3 receptor (in words)” value is “sub-nanomolar”.

Compound `O=C1c2c(ccc3ccccc23)CN1[C@H]1CN2CCC1CC2` [Compound 8, (R)-2-[1-azadicyclo[2.2.2]oct-3-yl]-2,3-dihydro-1H-benz[e]isoindol-1-one] returned a melting point of 155 to 157 °C. Also, affinity in data set [1] was put at a Ki of 1.8 ± 0.5 nM.

The compound `CN1[C@@H]2CC[C@H]1C[C@H](N1Cc3ccc4ccccc4c3C1=O)C2` [Compound 10, reference compound] yielded a Ki in data set [1] of 85.5 ± 16 nM. Besides, the “less active than Compound 1 at the 5HT3 receptor” value in data set [1] (relative to Compound 1) was ~2 orders of logarithmic magnitude.

Turning to `CN1[C@@H]2CC[C@H]1C[C@@H](N1Cc3nc4ccccc4cc3C1=O)C2` [Compound 11, endo-2-[8-methyl-8-azadicyclo[3.2.1]oct-3-yl]-2,3-dihydro-1H-pyrrolo[3,4-b]quinolin-1-one, reference compound], in data set [1], the Ki turned out to be 87 ± 37 nM. Besides, in data set [1] (relative to Compound 2), the “less active than Compound 2 at the 5HT3 receptor” value is reported as “approximately 60 times”.

On to `c1ccc2nc(N3CCNCC3)ccc2c1` [quipazine, reference compound], for which the Ki in data set [2] (setting [5]) was found to be 31.3 ± 2.9 nM; in data set [3] (setting [6]) it was 1810 ± 476 nM.

For orientation: Ki means a dissociation constant, usually derived from enzyme kinetics or from competition with a known ligand. Usually melting point stands for the temperature of the solid-liquid transition.
